Reference: patent publication US20240132431A1, “METHOD FOR ALKYLATING ACIDIC FUNCTIONAL GROUP” (Chugai Seiyaku Kabushiki Kaisha, priority 2021, published 2024)
Like-named read-outs stand apart in the source and are kept apart here.

Columns and labels:
human Bcl-2 protein = molecular target: T1, human Bcl-2 protein (Homo sapiens, UniProt P10415); assay: Binding evaluation of compounds to Bcl-2 by surface plasmon resonance (SPR)
T1 construct: purchased Novus Biologicals
Experimental: In order to analyze the binding affinity of the compounds shown in [Table AK-O1] and synthesized in Example 8 to Bcl-2, the surface plasmon resonance method was used. Biacore T200 (GE Healthcare) was used as the apparatus, and HBS (10 mM HEPES-NaOH, 150 mM NaCl, pH 7.4) to which 1 mM DTT, 3 mM EDTA, 0.01% Tween 20, and 4% DMSO had been added was used as the running buffer. The human Bcl-2 protein (Novus Biologicals) was biotinylated using EZ-Link Sulfo-NHS-LC-LC-biotin (Thermofisher scientific) and immobilized on the surface of Sensor Chip SA (GE Healthcare). Thereafter, compound solutions of multiple concentrations and the running buffer (blank) were added to the Bcl-2 immobilized surface to obtain the binding response of the compounds. The measurement was carried out at 15° C.

[1] = molecular target: T2, Bcl-2 protein (Recombinant Human Bcl-2 Protein) (Homo sapiens, UniProt P10415); assay: Binding evaluation of mixture library compounds to Bcl-2 using AS-MS (affinity selection mass spectrometry); settings: for ASMS ratio (%) n = 1 / ASMS ratio (%) n = 2: AS-MS, mixture library, Bcl-2, ASMS Ratio(%)=(A−C)/B×100; for ASMS ratio (%) n = 1: replicate n = 1; for ASMS ratio (%) n = 2: replicate n = 2
T2 construct: purchased Novus NBP2-34889
T2 sequence (P10415 whole entry): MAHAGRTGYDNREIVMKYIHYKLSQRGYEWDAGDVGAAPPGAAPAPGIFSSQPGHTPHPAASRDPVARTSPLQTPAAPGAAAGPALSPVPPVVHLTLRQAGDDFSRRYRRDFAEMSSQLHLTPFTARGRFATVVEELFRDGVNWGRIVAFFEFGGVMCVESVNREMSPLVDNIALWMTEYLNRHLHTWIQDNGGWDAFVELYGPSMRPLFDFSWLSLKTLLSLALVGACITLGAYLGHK
Outline: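 Readout is ASMS Ratio (%), (A−C)/B×100, from reversed-phase LC/MS of SEC-passed extracts, with protein-free unfiltered standard (B) and protein-free SEC blank (C). Recombinant human Bcl-2 at 20 μM final met ~1200 pooled compounds at […] each for 1 h, 23° C., dark, in Tris-HCl pH 7.4 buffer.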

[2] = binding to Bcl-2, compounds evaluated before library synthesis, read-out: KD
[3] = first value in parentheses, (A−C)/B×100, 1200-compound mixture, Bcl-2 20 μM
[4] = second value in parentheses, (A−C)/B×100, 1200-compound mixture, Bcl-2 20 μM
[5] = Biacore T200, biotinylated human Bcl-2 immobilized on Sensor Chip SA, 15° C., compounds found by AS-MS evaluation of synthesized library

T1 sequence (P10415 whole entry): as above

Kd (human Bcl-2 protein; [2])	ASMS ratio (%) n = 1 [1]	ASMS ratio (%) n = 2 [1]	ASMS ratio (%) [1, 3]	ASMS ratio (%) [1, 4]	Equilibrium dissociation constant KD (human Bcl-2 protein; Biacore T200, 15° C., compounds synthesized before performing library synthesis)	ASMS ratio (%) ([1]; n = 1)	ASMS ratio (%) ([1]; n = 2)	Equilibrium dissociation constant KD (human Bcl-2 protein; [5])	Kd (human Bcl-2 protein; Biacore T200, biotinylated human Bcl-2 immobilized on Sensor Chip SA, 15° C., compounds found by AS-MS evaluation of synthesized library, read-out: Equilibrium dissociation constant KD)	Structure (SMILES)
8.1 µM	20.3%	20.5%	20.3%	20.5%	–	–	–	–	–	CCOc1cncc(-c2ccccc2CN2CCN(c3ccc(C(=O)NS(=O)(=O)c4ccc(NCCSc5ccccc5)c([N+](=O)[O-])c4)cc3)CC2)c1 [B2Q046-01, 4-[4-[[2-(5-ethoxypyridin-3-yl)phenyl]methyl]piperazin-1-yl]-N-[3-nitro-4-(2-phenylsulfanylethylamino)phenyl]sulfonylbenzamide]
> 20 µM	–	–	–	–	Bound	−0.2%	0.0%	–	–	CCOc1cncc(-c2ccccc2CN2CCN(c3ccc(C(=O)NS(=O)(=O)c4ccc(NCCSc5ccccc5)c(C(F)(F)F)c4)cc3)CC2)c1 [B2R046-01, 4-[4-[[2-(5-Ethoxypyridin-3-yl)phenyl]methyl]piperazin-1-yl]-N-[4-(2-phenylsulfanylethylamino)-3-(trifluoromethyl)phenyl]sulfonylbenzamide]
–	61.6%	90.8%	61.6%	90.8%	–	–	–	Binding not observed	–	CCOc1cncc(-c2ccc(C(C)N3CCN(c4ccc(C(=O)NS(=O)(=O)c5ccc(NCCSc6ccccc6)c([N+](=O)[O-])c5)cc4)CC3)cc2)c1 (stereo not shown) [B2Q098-01, 4-[4-[1-[4-(5-ethoxypyridin-3-yl)phenyl]ethyl]piperazin-1-yl]-N-[3-nitro-4-(2-phenylsulfanylethylamino)phenyl]sulfonylbenzamide]
1.2 µM	49.9%	49.9%	49.9%	49.9%	–	–	–	–	–	CCOc1cccc(-c2ccccc2CN2CCN(c3ccc(C(=O)NS(=O)(=O)c4ccc(NCCSc5ccccc5)c([N+](=O)[O-])c4)cc3)CC2)c1 [B2Q045-01, 4-[4-[[2-(3-ethoxyphenyl)phenyl]methyl]piperazin-1-yl]-N-[3-nitro-4-(2-phenylsulfanylethylamino)phenyl]sulfonylbenzamide]
–	142.5%	326.4%	142.5%	326.4%	–	–	–	Binding not observed	–	CCOc1cccc(-c2ccc(C(C)N3CCN(c4ccc(C(=O)NS(=O)(=O)c5ccc(NCCSc6ccccc6)c([N+](=O)[O-])c5)cc4)CC3)cc2)c1 (stereo not shown) [B2Q097-01, 4-[4-[1-[4-(3-ethoxyphenyl)phenyl]ethyl]piperazin-1-yl]-N-[3-nitro-4-(2-phenylsulfanylethylamino)phenyl]sulfonylbenzamide]
–	44.1%	65.0%	44.1%	65.0%	–	–	–	–	1.27 µM	CCOc1cncc(-c2ccc(CN3CCN(c4ccc(C(=O)NS(=O)(=O)c5ccc(NCCSc6ccccc6)c([N+](=O)[O-])c5)cc4)CC3)c(OC)c2)c1 [B2Q054-01, 4-[4-[[4-(5-ethoxypyridin-3-yl)-2-methoxyphenyl]methyl]piperazin-1-yl]-N-[3-nitro-4-(2-phenylsulfanylethylamino)phenyl]sulfonylbenzamide]
–	–	–	22.4%	25.4%	–	22.4%	25.4%	Binding not observed	–	CCOc1cncc(-c2ccc(CN3CCN(c4ccc(C(=O)NS(=O)(=O)c5ccc(NCCSc6ccccc6)c(C(F)(F)F)c5)nn4)CC3)cc2C)c1 [B2R074-01, 6-[4-[[4-(5-ethoxypyridin-3-yl)-3-methylphenyl]methyl]piperazin-1-yl]-N-[4-(2-phenylsulfanylethylamino)-3-(trifluoromethyl)phenyl]sulfonylpyridazine-3-carboxamide]
